Experimental data from US9345740B2, “IAP antagonists” (BRISTOL-MYERS SQUIBB COMPANY, priority 2012, dated 2016).

Columns and labels:
Format in all cases: binding
[1] = target: XIAP BIR2-3 (His-BIR2-3 (125-356, C202A/C213G, XIAP)) (Homo sapiens (Human), UniProt P98170, C202A/C213G)
[2] = target: XIAP BIR3 (His-BIR3 (241-356, XIAP)) (Homo sapiens (Human), UniProt P98170)
[3] = target: XIAP BIR3 (N-His-Tb-BIR3(241-356, XIAP)) (Homo sapiens (Human), UniProt P98170)
[4] = target: XIAP BIR2 (His-BIR2 (124-240/C202A/C213G)) (Homo sapiens (Human), UniProt P98170, C202A/C213G); test: XIAP-BIR2/SMAC Peptide AlphaScreen Assay; details: footnote *: XIAP BIR2 alpha screen (printed in the BIR2-3 column)
Procedure: C. XIAP-BIR2/SMAC Peptide AlphaScreen Assay
Assays were performed in white, flat-bottom, 384-well ProxiPlates (Perkin Elmer). The final assay volume was 10 μL prepared from additions of His-BIR2 (124-240/C202A/C213G), Biotinylated SMAC peptide, and test compounds in assay buffer consisting of 25 mM Hepes, 100 mM NaCl, 0.1% BSA, and 5 mM CaCl2. The reaction was incubated at room temperature for 60 minutes. After 60 minutes, 2.5 μL of Alphascreen detection reagent (Perkin Elmer) was added to the reaction mixture and incubated at room temperature in the dark for 120 minutes. The Alphascreen signal generated by the reaction was detected on the Envision Plate Reader Inhibition data were calculated from an Alphascreen signal generated by the no protein control reactions for 100% inhibition and vehicle-only reactions for 0% inhibition. The final concentration of reagents in the assay was 50 nM His-BIR2 (124-240/C202A/C213G), 50 nM.
Biotinylated SMAC peptide, 4 μg/mL Alphascreen detection reagents, and 0.5% DMSO. Dose response curves were generated to determine the concentration required for inhibiting 50% of the activity (IC50). Compounds were dissolved at 10 mM in dimethylsulfoxide (DMSO) and evaluated at eleven concentrations. IC50 values were derived by non-linear regression analysis.

XIAP BIR2-3 (His-BIR2-3 (125-356, C202A/C213G, XIAP)), sequence (P98170 whole entry C202A/C213G, looked up): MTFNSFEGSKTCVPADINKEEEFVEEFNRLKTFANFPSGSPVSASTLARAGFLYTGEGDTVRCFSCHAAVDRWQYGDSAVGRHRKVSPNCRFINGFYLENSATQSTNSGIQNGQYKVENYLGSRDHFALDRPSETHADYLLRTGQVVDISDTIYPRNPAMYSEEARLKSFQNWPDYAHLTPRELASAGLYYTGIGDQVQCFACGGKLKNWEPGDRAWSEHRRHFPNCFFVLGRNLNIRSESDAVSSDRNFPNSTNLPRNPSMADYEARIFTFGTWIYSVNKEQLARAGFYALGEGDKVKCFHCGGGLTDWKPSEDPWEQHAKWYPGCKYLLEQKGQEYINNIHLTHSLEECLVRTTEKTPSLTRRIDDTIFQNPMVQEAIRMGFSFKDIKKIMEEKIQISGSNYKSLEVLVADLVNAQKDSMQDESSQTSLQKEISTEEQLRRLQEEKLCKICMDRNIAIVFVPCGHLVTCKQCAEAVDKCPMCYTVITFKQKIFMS
XIAP BIR3 (His-BIR3 (241-356, XIAP)), sequence (P98170 whole entry, looked up): as the sequence (P98170 whole entry C202A/C213G, looked up) above, with A202C, G213C counted along it
XIAP BIR2 (His-BIR2 (124-240/C202A/C213G)), sequence (P98170 whole entry C202A/C213G, looked up): as the sequence (P98170 whole entry C202A/C213G, looked up) above
XIAP BIR3 (N-His-Tb-BIR3(241-356, XIAP)), sequence (P98170 whole entry, looked up): as the sequence (P98170 whole entry C202A/C213G, looked up) above, with A202C, G213C counted along it

## CN[C@@H](C)C(=O)NC(Cc1ccc(NC(=O)c2ccc(C(=O)N[C@H]3C[C@@H](C(=O)NC4CCCc5ccccc54)N(C(=O)[C@@H](NC(=O)[C@H](C)NC)C(C)(C)C)C3)cc2)cc1)C(=O)N1C[Si](C)(C)C[C@H]1C(=O)NC1CCCc2ccccc21 (stereo partly drawn) [Example 1]
[1]
  IC50: 4 nM
[2]
  IC50: 12 nM

## CN[C@@H](C)C(=O)N[C@@H](Cc1ccc(NC(=O)N[C@H]2C[C@@H](C(=O)N[C@@H]3CCCc4ccccc43)N(C(=O)[C@@H](NC(=O)[C@H](C)NC)C(C)(C)C)C2)cc1)C(=O)N1C[Si](C)(C)C[C@H]1C(=O)N[C@@H]1CCCc2ccccc21 [Example 2, (R)-1-((S)-3-(4-(3-((3S,5S)-1-((S)-3,3-Dimethyl-2-((S)-2-(methylamino)propanamido)butanoyl)-5-(((R)-1,2,3,4-tetrahydronaphthalen-1-yl)carbamoyl)pyrrolidin-3-yl)ureido)phenyl)-2-((S)-2-(methylamino)propanamido)propanoyl)-3,3-dimethyl-N—((R)-1,2,3,4-tetrahydronaphthalen-1-yl)-1,3-azasilolidine-5-carboxamide]
[1]
  IC50: 6 nM
[2]
  IC50: 16 nM

## CN[C@@H](C)C(=O)NC(Cc1ccc(NC(=O)c2ccc(CO[C@H]3C[C@@H](C(=O)NC4CCCc5ccccc54)N(C(=O)[C@@H](NC(=O)[C@H](C)NC)C(C)(C)C)C3)cc2)cc1)C(=O)N1C[Si](C)(C)C[C@H]1C(=O)NC1CCCc2ccccc21 (stereo partly drawn) [Example 3, (R)-1-((S)-3-(4-(4-((((3S,5S)-1-((S)-3,3-Dimethyl-2-(S)-2-(methylamino)propanamido)butanoyl)-5-(((R)-1,2,3,4-tetrahydronaphthalen-1-yl)carbamoyl)pyrrolidin-3-yl)oxy)methyl)benzamido)phenyl)-(2-((S)-2-(methylamino)propanamido)propanoyl)-3,3-dimethyl-N—((R)-1,2,3,4-tetrahydronaphthalen-1-yl)-1,3-azasilolidine-5-carboxamide]
[1]
  IC50: 5 nM
[2]
  IC50: 14 nM

## CN[C@@H](C)C(=O)NC(Cc1ccc(C(=O)Nc2ccc(C(=O)N[C@H]3C[C@@H](C(=O)NC4CCCc5ccccc54)N(C(=O)[C@@H](NC(=O)[C@H](C)NC)C(C)(C)C)C3)cc2)cc1)C(=O)N1C[Si](C)(C)C[C@H]1C(=O)NC1CCCc2ccccc21 (stereo partly drawn) [Example 4]
[1]
  IC50: 4 nM
[2]
  IC50: 14 nM

## CN[C@@H](C)C(=O)N[C@@H](Cc1ccc(C#Cc2ccc(C(=O)N[C@H]3C[C@@H](C(=O)N[C@@H]4CCCc5ccccc54)N(C(=O)[C@@H](NC(=O)[C@H](C)NC)C(C)(C)C)C3)cc2)cc1)C(=O)N1C[Si](C)(C)C[C@H]1C(=O)N[C@@H]1CCCc2ccccc21 [Example 5, (R)-1-((S)-3-(4-((4-(((3S,5S)-1-((S)-3,3-Dimethyl-2-((S)-2-(methylamino)propanamido)butanoyl)-5-(((R)-1,2,3,4-tetrahydronaphthalen-1-yl)carbamoyl)pyrrolidin-3-yl)carbamoyl)phenyl)ethynyl)phenyl)-2-((S)-2-(methylamino)propanamido)propanoyl)-3,3-dimethyl-N—((R)-1,2,3,4-tetrahydronaphthalen-1-yl)-1,3-azasilolidine-5-carboxamide]
[1]
  IC50: 341 nM
[2]
  IC50: 103 nM

## CN[C@@H](C)C(=O)N[C@@H](Cc1ccc(CCc2ccc(C(=O)N[C@H]3C[C@@H](C(=O)N[C@@H]4CCCc5ccccc54)N(C(=O)[C@@H](NC(=O)[C@H](C)NC)C(C)(C)C)C3)cc2)cc1)C(=O)N1C[Si](C)(C)C[C@H]1C(=O)N[C@@H]1CCCc2ccccc21 [Example 6, (R)-1-((S)-3-(4-(4-(((3S,5S)-1-((S)-3,3-Dimethyl-2-((S)-2-(methylamino)propanamido)butanoyl)-5-(((R)-1,2,3,4-tetrahydronaphthalen-1-yl)carbamoyl)pyrrolidin-3-yl)carbamoyl)phenethyl)phenyl)-2-((S)-2-(methylamino)propanamido)propanoyl)-3,3-dimethyl-N—((R)-1,2,3,4-tetrahydronaphthalen-1-yl)-1,3-azasilolidine-5-carboxamide]
[1]
  IC50: 205 nM
[2]
  IC50: 84 nM

## CN[C@@H](C)C(=O)NC(Cc1ccc(-c2ccc(C(=O)NC3C[C@@H](C(=O)NC4CCCc5ccccc54)N(C(=O)[C@@H](NC(=O)[C@H](C)NC)C(C)(C)C)C3)cc2)cc1)C(=O)N1C[Si](C)(C)C[C@H]1C(=O)NC1CCCc2ccccc21 (stereo partly drawn) [Example 7]
[1]
  IC50: 307 nM
[2]
  IC50: 93 nM

## CN[C@@H](C)C(=O)N[C@@H](Cc1ccc(C#CC(=O)N[C@H]2C[C@@H](C(=O)N[C@@H]3CCCc4ccccc43)N(C(=O)[C@@H](NC(=O)[C@H](C)NC)C(C)(C)C)C2)cc1)C(=O)N1C[Si](C)(C)C[C@H]1C(=O)N[C@@H]1CCCc2ccccc21 [Example 8, (R)-1-((S)-3-(4-(3-(((3S,5S)-1-((S)-3,3-Dimethyl-2-((S)-2-(methylamino)propanamido)butanoyl)-5-(((R)-1,2,3,4-tetrahydronaphthalen-1-yl)carbamoyl)pyrrolidin-3-yl)amino)-3-oxoprop-1-yn-1-yl)phenyl)-2-((S)-2-(methylamino)propanamido)propanoyl)-3,3-dimethyl-N—((R)-1,2,3,4-tetrahydronaphthalen-1-yl)-1,3-azasilolidine-5-carboxamide]
[1]
  IC50: 4 nM
[2]
  IC50: 3 nM

## CN[C@@H](C)C(=O)N[C@H](C(=O)N1C[C@@H](NC(=O)c2ccc(CN(C(=O)[C@@H]3C[Si](C)(C)CN3C(=O)[C@@H](NC(=O)[C@H](C)NC)C(C)(C)C)[C@H](C)c3ccccc3F)cc2)C[C@H]1C(=O)N[C@@H]1CCCc2ccccc21)C(C)(C)C [Example 9, (R)-1-((S)-3,3-Dimethyl-2-((S)-2-(methylamino)propanamido)butanoyl)-N-(4-(((3S,5S)-1-((S)-3,3-dimethyl-2-((S)-2-(methylamino)propanamido)butanoyl)-5-(((R)-1,2,3,4-tetrahydronaphthalen-1-yl)carbamoyl)pyrrolidin-3-yl)carbamoyl)benzyl)-N—((R)-1-(2-fluorophenyl)ethyl)-3,3-dimethyl-1,3-azasilolidine-5-carboxamide]
[1]
  IC50: 9 nM
[2]
  IC50: 52 nM

## CN[C@@H](C)C(=O)N[C@@H](Cc1ccc(C(=O)N[C@H]2C[C@@H](C(=O)N[C@@H]3CCCc4ccccc43)N(C(=O)[C@@H](NC(=O)[C@H](C)NC)C(C)(C)C)C2)cc1)C(=O)N1C[Si](C)(C)C[C@H]1C(=O)N[C@@H]1CCCc2ccccc21 [Example 10, (R)-1-((S)-3-(4-(((3S,5S)-1-((S)-3,3-dimethyl-2-((S)-2-(methylamino)propanamido)butanoyl)-5-(((R)-1,2,3,4-tetrahydronaphthalen-1-yl)carbamoyl)pyrrolidin-3-yl)carbamoyl)phenyl)-2-((S)-2-(methylamino)propanamido)propanoyl)-3,3-dimethyl-N-((R)-1,2,3,4-tetrahydronaphthalen-1-yl)-1,3-azasilolidine-5-carboxamide]
[1]
  IC50: 5 nM
[2]
  IC50: 8 nM

## CC[C@H](NC)C(=O)N[C@@H](Cc1ccc(NC(=O)c2ccc(C(=O)N[C@H]3C[C@@H](C(=O)N[C@@H]4CCCc5ccccc54)N(C(=O)[C@@H](NC(=O)[C@H](C)NC)C(C)(C)C)C3)cc2)cc1)C(=O)N1C[Si](C)(C)C[C@H]1C(=O)N[C@@H]1CCCc2ccccc21 [Example 11, N1-((3S,5S)-1-((S)-3,3-dimethyl-2-((S)-2-(methylamino)propanamido)butanoyl)-5-(((R)-1,2,3,4-tetrahydronaphthalen-1-yl)carbamoyl)pyrrolidin-3-yl)-N4-(4-((S)-3-((R)-3,3-dimethyl-5-(((R)-1,2,3,4-tetrahydronaphthalen-1-yl)carbamoyl)-1,3-azasilolidin-1-yl)-2-((S)-2-(methylamino)butanamido)-3-oxopropyl)phenyl)terephthalamide]
[1]
  IC50: 6 nM
[2]
  IC50: 30 nM

## CN[C@@H](C)C(=O)N[C@H](C(=O)N1C[C@@H](NC(=O)c2ccc(CN(C(=O)[C@@H]3C[Si](C)(C)CN3C(=O)[C@@H](NC(=O)[C@H](C)NC)C(C)(C)C)[C@H](C)c3cccc(F)c3F)cc2)C[C@H]1C(=O)N[C@@H]1CCCc2ccccc21)C(C)(C)C [Example 12, (R)-N-((R)-1-(2,3-Difluorophenyl)ethyl)-1-((S)-3,3-dimethyl-2-((S)-2-(methylamino)propanamido)butanoyl)-N-(4-(((3S,5S)-1-((S)-3,3-dimethyl-2-((S)-2-(methylamino)propanamido)butanoyl)-5-(((R)-1,2,3,4-tetrahydronaphthalen-1-yl)carbamoyl)pyrrolidin-3-yl)carbamoyl)benzyl)-3,3-dimethyl-1,3-azasilolidine-5-carboxamide]
[3]
  IC50: 170 nM
[4]
  IC50: 590 nM
